Data taken from ChEMBL document CHEMBL1201862, “PubChem BioAssay data set” (2004).
Active and inactive are the calls of the source.

What was measured:
[1] = biological target: Sphingosine 1-phosphate receptor 1 (Homo sapiens, UniProt P21453); assay: Fluorescence-based counterscreen assay for S1P4 agonists: Cell-based dose response high throughput screening assay to identify agonists of the Sphingosine 1-Phosphate Receptor 1 (S1P1). [Related pubchem assays (depositor defined):AID1509, AID1523, AID1801, AID463107, AID463118, AID463119, AID463122, AID463123, AID463129, AID463225, AID504400, AID504460]; assay type: functional
[2] = biological target: Sphingosine 1-phosphate receptor 4 (Homo sapiens, UniProt O95977); assay: Fluorescence dose response cell-based high throughput screening assay for agonists of the Sphingosine 1-Phosphate Receptor 4 (S1P4). [Related pubchem assays: 1509 (Primary screen.), 1523 (Confirmation screen in triplicates.)]; assay type: functional
Sphingosine 1-phosphate receptor 4, sequence (O95977 whole entry): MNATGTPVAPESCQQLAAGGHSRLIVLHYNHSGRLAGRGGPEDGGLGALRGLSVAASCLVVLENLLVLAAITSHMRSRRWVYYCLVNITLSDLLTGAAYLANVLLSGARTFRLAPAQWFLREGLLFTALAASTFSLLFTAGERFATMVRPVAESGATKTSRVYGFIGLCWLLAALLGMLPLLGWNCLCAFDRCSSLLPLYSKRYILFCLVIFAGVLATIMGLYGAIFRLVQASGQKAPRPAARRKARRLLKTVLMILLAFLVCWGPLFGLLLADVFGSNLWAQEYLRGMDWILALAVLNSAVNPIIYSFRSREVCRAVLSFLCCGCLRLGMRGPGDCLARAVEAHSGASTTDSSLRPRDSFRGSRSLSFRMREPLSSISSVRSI

[3] = test system: Streptococcus sp. 'group A'; assay: growth inhibition of control SK(-) GAS strain, dose response, counter-screen for streptokinase expression inhibitor project, luminescence, kanamycin, BacTiterGlo, confirmation (AID 1900); assay type: functional, organism-based
[4] = microbe, parasite or virus in culture; assay type: functional; conditions: Mycobacterium tuberculosis
Streptococcus = assay: Group A Streptococcus viability loss, dose response, counter-screen for streptokinase expression inhibitor project, luminescence, BacTiterGlo (AID 1915); assay type: functional, organism-based;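 further: potency for reduction of bacterial viability or growth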
[5] = THP-1 cell cytotoxicity, dose response, cytotoxicity control for non-replicating M. tuberculosis project (AID 489025); assay type: functional
[6] = HepG2 cell cytotoxicity, dose response, cytotoxicity control for non-replicating M. tuberculosis project (AID 489018); assay type: functional; conditions: Mycobacterium tuberculosis
[7] = Vero E6 cell cytotoxicity, dose response, cytotoxicity control for non-replicating M. tuberculosis project, secondary assay (AID 492998); assay type: functional, VeroE6; conditions: Vero C1008
Nonstructural protein 1 = Nonstructural protein 1 (Influenza A virus, UniProt Q194T2); assay type: functional, Influenza A virus (A/California/07/2009(H1N1))
cells = assay type: functional
Hexokinase HKDC1 = biological target: T1, Hexokinase HKDC1 (Homo sapiens, UniProt Q2TB90); assay: HKDC1 hexokinase inhibitors, dose response, biochemical, W721R variant (AID 504729); assay type: functional
T1 sequence (Q2TB90 whole entry): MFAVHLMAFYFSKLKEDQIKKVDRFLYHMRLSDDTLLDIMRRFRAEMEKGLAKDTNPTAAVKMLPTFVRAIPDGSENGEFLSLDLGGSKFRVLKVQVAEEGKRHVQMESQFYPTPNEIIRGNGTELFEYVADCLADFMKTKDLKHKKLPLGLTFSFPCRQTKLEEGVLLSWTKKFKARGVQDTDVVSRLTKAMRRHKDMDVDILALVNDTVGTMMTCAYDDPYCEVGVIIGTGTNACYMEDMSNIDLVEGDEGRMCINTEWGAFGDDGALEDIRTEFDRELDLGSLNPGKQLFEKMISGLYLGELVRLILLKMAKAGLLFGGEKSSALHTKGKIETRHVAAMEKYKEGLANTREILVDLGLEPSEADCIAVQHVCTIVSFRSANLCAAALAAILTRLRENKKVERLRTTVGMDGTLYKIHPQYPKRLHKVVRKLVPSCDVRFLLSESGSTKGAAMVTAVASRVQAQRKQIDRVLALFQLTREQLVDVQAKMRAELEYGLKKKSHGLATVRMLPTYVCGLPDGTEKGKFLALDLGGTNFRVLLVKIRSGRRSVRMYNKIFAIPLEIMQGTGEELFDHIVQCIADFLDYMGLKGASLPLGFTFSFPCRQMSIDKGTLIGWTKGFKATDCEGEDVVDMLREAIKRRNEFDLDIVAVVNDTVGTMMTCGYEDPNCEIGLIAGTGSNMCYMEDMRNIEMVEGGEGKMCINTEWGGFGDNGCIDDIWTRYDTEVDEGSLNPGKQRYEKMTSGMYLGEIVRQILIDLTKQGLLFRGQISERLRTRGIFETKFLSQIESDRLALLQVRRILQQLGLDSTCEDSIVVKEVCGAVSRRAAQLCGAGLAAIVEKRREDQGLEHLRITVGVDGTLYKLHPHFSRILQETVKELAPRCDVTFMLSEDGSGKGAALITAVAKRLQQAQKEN

[8] = biological target: Peroxisome proliferator-activated receptor gamma/Nuclear receptor coactivator 1 (Homo sapiens, UniProt P37231); assay: TR-FRET dose response biochemical High Throughput Screening assay for agonists of the steroid receptor coactivator 1 (SRC-1) recruitment by the peroxisome proliferator-activated receptor gamma (PPAR gamma): non-selective agonists. [Related pubchem assays (depositor defined):AID1300, AID1808, AID504735, AID631]; assay type: protein assay
[9] = biological target: Peroxisome proliferator-activated receptor gamma/Nuclear receptor coactivator 3 (Homo sapiens, UniProt P37231); assay: TR-FRET dose response biochemical High Throughput Screening assay for agonists of the steroid receptor coactivator 3 (SRC-3) recruitment by the peroxisome proliferator-activated receptor gamma (PPAR gamma): non-selective agonists. [Related pubchem assays: 1301 (Confirmation screen.), 1048 (Primary screen.)]; assay type: functional
Peroxisome proliferator-activated receptor gamma/Nuclear receptor coactivator 3, sequence (P37231 whole entry): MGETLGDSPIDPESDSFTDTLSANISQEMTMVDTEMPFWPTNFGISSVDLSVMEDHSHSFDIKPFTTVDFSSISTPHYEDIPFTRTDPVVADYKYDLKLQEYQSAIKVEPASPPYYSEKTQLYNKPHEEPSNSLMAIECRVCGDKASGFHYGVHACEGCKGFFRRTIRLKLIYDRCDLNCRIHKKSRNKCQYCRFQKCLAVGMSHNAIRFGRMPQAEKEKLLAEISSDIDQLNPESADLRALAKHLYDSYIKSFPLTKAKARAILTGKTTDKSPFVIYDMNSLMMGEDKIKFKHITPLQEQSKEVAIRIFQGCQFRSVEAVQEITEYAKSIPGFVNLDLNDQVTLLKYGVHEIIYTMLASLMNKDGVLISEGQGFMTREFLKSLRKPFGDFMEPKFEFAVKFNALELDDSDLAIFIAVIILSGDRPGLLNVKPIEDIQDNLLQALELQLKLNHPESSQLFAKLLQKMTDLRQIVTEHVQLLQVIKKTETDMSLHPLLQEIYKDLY
Peroxisome proliferator-activated receptor gamma/Nuclear receptor coactivator 3, sequence (Q9Y6Q9 whole entry, further chain): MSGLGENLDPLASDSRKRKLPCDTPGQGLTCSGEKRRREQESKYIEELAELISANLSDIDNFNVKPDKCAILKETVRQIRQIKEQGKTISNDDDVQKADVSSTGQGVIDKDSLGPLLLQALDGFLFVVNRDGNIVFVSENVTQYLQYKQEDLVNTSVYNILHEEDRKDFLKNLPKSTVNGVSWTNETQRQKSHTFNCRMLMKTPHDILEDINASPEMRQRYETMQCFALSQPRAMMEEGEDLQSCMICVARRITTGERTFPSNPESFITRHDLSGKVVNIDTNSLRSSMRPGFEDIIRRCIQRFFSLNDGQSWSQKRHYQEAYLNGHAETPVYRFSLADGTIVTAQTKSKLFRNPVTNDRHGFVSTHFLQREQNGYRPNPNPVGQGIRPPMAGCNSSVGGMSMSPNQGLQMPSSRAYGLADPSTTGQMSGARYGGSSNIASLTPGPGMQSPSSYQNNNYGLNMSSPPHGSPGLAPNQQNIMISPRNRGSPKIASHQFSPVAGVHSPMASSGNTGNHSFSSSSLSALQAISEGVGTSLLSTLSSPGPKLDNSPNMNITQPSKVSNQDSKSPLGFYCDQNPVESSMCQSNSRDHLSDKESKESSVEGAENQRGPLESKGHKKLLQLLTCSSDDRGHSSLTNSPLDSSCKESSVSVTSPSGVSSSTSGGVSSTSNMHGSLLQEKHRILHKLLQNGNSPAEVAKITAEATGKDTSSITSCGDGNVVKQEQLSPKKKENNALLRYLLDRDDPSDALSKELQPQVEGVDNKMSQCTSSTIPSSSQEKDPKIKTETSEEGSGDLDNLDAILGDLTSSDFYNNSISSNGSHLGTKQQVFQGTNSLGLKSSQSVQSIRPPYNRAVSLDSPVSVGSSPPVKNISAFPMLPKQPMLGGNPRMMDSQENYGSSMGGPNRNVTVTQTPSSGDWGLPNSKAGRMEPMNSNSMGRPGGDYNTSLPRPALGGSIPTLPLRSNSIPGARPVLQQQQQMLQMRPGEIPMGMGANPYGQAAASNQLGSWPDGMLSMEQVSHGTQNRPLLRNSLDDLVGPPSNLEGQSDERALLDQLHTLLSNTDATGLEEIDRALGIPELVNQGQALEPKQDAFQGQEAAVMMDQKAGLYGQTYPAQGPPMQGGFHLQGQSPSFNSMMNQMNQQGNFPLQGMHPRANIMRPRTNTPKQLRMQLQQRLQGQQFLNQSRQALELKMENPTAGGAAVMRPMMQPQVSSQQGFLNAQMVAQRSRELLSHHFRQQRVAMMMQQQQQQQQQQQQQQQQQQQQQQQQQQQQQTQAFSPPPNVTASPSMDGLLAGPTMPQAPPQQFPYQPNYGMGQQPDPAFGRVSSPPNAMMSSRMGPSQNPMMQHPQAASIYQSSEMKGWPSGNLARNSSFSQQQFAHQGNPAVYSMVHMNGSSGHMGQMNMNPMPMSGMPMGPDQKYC

[10] = biological target: Peroxisome proliferator-activated receptor gamma/Nuclear receptor coactivator 2 (Homo sapiens, UniProt P37231); assay: TR-FRET dose response biochemical High Throughput Screening assay for agonists of the steroid receptor coactivator 2 (SRC-2) recruitment by the peroxisome proliferator-activated receptor gamma (PPAR gamma): non-selective agonists. [Related pubchem assays: 1297, 1032 ]; assay type: functional
HeLa = assay: HeLa cell cytotoxicity, dose response, cytotoxicity control for MITF activator project, CellTiter-Glo luminescence, cherry-pick samples (AID 540259); assay type: functional, cell-based; conditions: Homo sapiens
[11] = biological target: T2, E3 ubiquitin-protein ligase XIAP (Homo sapiens, UniProt P98170); assay: Counter Screen using XIAP-Bir3 for Chemical Antagonists of Bir1/2 domains of IAP-family anti-apoptotic proteins. [Related pubchem assays (depositor defined):AID1018, AID1449, AID1514, AID1638, AID1749, AID1750, AID488957, AID488963]
T2 sequence (P98170 whole entry): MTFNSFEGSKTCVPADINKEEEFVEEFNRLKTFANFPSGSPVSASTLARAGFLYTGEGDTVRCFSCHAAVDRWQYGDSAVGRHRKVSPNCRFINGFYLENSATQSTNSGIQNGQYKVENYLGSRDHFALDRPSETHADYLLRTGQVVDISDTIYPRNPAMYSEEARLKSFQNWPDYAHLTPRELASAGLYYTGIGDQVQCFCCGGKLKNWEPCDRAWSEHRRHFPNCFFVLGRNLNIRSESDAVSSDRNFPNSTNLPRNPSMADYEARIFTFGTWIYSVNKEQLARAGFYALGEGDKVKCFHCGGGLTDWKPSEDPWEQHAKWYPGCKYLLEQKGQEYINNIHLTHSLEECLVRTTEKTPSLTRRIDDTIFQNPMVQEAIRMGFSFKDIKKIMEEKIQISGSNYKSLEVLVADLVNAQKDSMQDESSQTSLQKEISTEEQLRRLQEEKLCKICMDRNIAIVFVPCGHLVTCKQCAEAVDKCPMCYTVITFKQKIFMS

[12] = biological target: T2, E3 ubiquitin-protein ligase XIAP; assay: XIAP antagonists, biochemical, IAP family, fluorescence polarization (AID 1018); assay type: functional
[13] = biological target: T3, Delta-type opioid receptor (Homo sapiens, UniProt P41143); assay: HTS Image-Based Screen for Antagonists of the DOR Receptor. [Related pubchem assays (depositor defined):AID1777, AID1785, AID1786, AID2133]; assay type: functional
T3 sequence (P41143 whole entry): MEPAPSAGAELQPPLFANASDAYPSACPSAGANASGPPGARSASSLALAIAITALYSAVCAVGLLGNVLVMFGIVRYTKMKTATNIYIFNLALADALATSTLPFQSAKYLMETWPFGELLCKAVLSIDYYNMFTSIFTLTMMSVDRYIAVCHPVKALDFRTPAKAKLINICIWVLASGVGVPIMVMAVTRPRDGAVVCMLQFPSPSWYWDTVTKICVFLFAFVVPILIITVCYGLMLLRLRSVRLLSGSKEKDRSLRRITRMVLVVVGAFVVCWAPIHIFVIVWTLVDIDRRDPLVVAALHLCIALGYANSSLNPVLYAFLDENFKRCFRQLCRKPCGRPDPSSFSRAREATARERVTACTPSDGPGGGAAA

Mu-type opioid receptor = Mu-type opioid receptor (Homo sapiens, UniProt P35372); assay: HTS Image-Based Screen for Agonists of the MOR Receptor. [Related pubchem assays (depositor defined):AID1777, AID1785, AID1786, AID2133]; assay type: functional;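 further: imaging of beta-arrestin GFP recruitment into spots after receptor activation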
[14] = biological target: T3, Delta-type opioid receptor; assay: HTS Image-Based Screen for Agonists of the DOR Receptor. [Related pubchem assays (depositor defined):AID1777, AID1786, AID2133]; assay type: functional
[15] = biological target: T4, Kappa-type opioid receptor (Homo sapiens, UniProt P41145); assay type: functional
T4 sequence (P41145 whole entry): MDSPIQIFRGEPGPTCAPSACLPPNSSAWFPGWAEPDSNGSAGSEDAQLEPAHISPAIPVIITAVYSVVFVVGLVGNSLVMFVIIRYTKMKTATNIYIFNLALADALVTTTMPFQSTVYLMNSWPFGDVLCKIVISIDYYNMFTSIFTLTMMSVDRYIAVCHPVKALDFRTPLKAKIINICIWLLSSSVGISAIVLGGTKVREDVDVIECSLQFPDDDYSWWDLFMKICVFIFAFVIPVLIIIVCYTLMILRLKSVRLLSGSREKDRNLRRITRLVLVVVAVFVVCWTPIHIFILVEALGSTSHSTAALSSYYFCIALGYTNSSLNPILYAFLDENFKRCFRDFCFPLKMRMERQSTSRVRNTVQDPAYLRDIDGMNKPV

Beta-galactosidase = Beta-galactosidase (Escherichia coli, UniProt Q8VNN2); assay type: functional
[16] = biological target: T4, Kappa-type opioid receptor; assay type: functional; remark: listed apart in the source
[17] = biological target: G-protein coupled receptor 55 (Homo sapiens, UniProt Q9Y2T6); assay: GPR55 antagonists blocking LPI-driven arrestin recruitment, primary screen, imaging, U2OS, beta-arrestin-GFP, LPI agonist (AID 2013); assay type: functional;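 further: antagonist potency measured as reduced agonist-driven arrestin aggregation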
G-protein coupled receptor 55, sequence (Q9Y2T6 whole entry): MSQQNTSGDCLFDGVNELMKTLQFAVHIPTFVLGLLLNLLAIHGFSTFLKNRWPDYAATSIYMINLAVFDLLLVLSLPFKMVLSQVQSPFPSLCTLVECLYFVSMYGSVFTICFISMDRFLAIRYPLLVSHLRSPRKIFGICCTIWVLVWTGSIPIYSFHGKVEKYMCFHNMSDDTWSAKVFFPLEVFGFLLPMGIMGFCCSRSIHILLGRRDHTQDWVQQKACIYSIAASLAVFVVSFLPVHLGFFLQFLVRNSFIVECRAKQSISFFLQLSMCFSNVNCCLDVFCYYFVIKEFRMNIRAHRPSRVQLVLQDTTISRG

Trypsin = Trypsin (Sus scrofa, UniProt P00761); assay: porcine trypsin inhibitors, dose response, selectivity assay for Rce1 protease inhibitor project, biochemical, quenched peptide fluorescence, cherry-pick (AID 488789)
CAAX prenyl protease 2 = CAAX prenyl protease 2 (Saccharomyces cerevisiae S288c, UniProt Q03530); assay type: biochemical
HEK293 [18] = assay: PMA/Ionomycin induced NF-kB luciferase assay in 293- NF-kB-Luc stable cells. [Related pubchem assays: 1299, 1270, 1295, 1375, 1287, 1281, 1293, 1291, 1289, 1280, 465, 1364, 1282, 1372, 1365, 1370, 1367, 1366, 1269, 1373, 1292, 1290, 1302, 1371, 1283, 1271, 1294, 1374, 1368, 1369 ]; assay type: functional, cell-based; conditions: Homo sapiens
[19] = biological target: T5, Luciferin 4-monooxygenase (Photinus pyralis, UniProt P08659); assay: In vitro luciferase assay using purified luciferase. [Related pubchem assays: 1299, 1270, 1295, 1375, 1287, 1281, 1293, 1291, 1289, 1280, 465, 1364, 1282, 1372, 1365, 1370, 1367, 1366, 1266, 1373, 1292, 1290, 1302, 1371, 1283, 1271, 1294, 1374, 1368, 1369 ]
T5 sequence (P08659 whole entry): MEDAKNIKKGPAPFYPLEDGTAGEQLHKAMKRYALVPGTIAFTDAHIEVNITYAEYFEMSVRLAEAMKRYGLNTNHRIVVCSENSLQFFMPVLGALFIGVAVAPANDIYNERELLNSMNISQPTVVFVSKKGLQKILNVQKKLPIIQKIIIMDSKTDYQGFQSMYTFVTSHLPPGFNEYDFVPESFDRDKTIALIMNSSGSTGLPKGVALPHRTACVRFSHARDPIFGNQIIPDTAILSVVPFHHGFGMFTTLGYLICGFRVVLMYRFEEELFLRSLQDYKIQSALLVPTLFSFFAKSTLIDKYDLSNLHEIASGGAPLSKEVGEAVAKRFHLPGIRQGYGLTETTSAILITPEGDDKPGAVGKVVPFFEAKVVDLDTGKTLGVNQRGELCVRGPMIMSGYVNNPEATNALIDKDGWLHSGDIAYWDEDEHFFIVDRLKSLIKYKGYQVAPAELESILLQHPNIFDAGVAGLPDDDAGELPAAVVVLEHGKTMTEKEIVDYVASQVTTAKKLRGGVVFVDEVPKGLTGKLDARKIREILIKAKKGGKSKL

[20] = biological target: T5, Luciferin 4-monooxygenase; assay: firefly luciferase enzyme inhibitors, dose response, biochemical, luminescence (AID 1891)
[21] = Luminescence Cell-Based Dose Confirmation HTS to Identify Inhibitors of Platelet Dense Granule Release. [Related pubchem assays: 1663 (Primary HTS), 1678 (Summary of Project)]; assay type: functional
HEK293 [22] = assay: Cytotoxicity assay in HEK293 cells. [Related pubchem assays (depositor defined):AID1266, AID1269, AID1270, AID1271, AID1280, AID1281, AID1282, AID1283, AID1287, AID1289, AID1290, AID1291, AID1292, AID1293, AID1294, AID1295, AID1299, AID1302, AID1364, AID1365, AID1366, AID1367, AID1369, AID1370, AID1371, AID1372, AID1373, AID1374, AID1375, AID1384 …; assay type: functional, cell-based; conditions: Homo sapiens
HEK293 [23] = assay: TNF Induced NF-kB Luciferase in 293-NF-kB-Luc Stable Cells. [Related pubchem assays: 1266, 1299, 1269, 1373, 1292, 1290, 1302, 1371, 1283, 1270, 1295, 1271, 1375, 1294, 1374, 1281, 1293, 1291, 1289, 1280, 465, 1368, 1364, 1282, 1372, 1365, 1369, 1370, 1367, 1366 ]; assay type: functional, cell-based; conditions: Homo sapiens
HEK293 [24] = assay: inhibitors of LMP1-driven NF-kB reporter, dose response, cell-based, HEK293, luciferase, cherry-pick (AID 588343); assay type: functional; conditions: Homo sapiens
Cytochrome P450 2D6 = Cytochrome P450 2D6 (Homo sapiens, UniProt P10635);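 further: CYP2D6 member of a cytochrome P450 panel assay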
Cytochrome P450 2D6, sequence (P10635 whole entry): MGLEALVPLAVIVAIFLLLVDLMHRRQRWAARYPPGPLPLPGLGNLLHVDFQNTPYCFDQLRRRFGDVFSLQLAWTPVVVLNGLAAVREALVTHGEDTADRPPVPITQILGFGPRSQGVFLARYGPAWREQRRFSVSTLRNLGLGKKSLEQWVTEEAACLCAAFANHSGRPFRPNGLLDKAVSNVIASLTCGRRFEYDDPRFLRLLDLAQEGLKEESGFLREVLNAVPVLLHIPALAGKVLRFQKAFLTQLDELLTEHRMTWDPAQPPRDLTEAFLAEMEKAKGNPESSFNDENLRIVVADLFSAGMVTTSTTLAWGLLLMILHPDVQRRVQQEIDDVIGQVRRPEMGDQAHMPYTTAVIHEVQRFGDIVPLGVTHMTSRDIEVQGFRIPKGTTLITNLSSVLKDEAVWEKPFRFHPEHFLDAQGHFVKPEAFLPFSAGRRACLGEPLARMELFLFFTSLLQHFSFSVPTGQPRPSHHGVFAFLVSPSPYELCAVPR

## Cn1c(SCC(=O)c2ccc3c(c2)OCO3)nnc1C1COc2ccccc2O1 (stereo unspecified)
[1]
  EC50: > 49.8 µM (inactive)
[2]
  EC50: > 49.8 µM (not active)

## COCc1cc(O)nc(Nc2nc3ccccc3o2)n1
[3]
  EC50: 2.21 µM (active)
[4]
  CC50: 16 µM (active)
Streptococcus
  EC50: 9.09 µM (active)
[5]
  CC50: 19.4 µM (active)
[6]
  CC50: 16.8 µM (active)
[7]
  CC50: 7.52 µM (active)
Nonstructural protein 1
  IC50: 10.8 µM (active)
cells
  IC50: 1.85 µM (active)

## CC(C)Nc1nnc(SCC(=O)Nc2ccc3c(c2)C(=O)c2ccccc2C3=O)s1
Hexokinase HKDC1
  IC50: 29.7 µM (inactive)

## O=C(Nc1ccccc1)c1ccc(-c2ccccc2)s1
[8]
  EC50: 8.84 µM (active)
[9]
  EC50: 35 µM (not active)
[10]
  EC50: 10.6 µM (not active)
HeLa
  AC50: 48 µM (active)

## CC1(C)CC(=O)N(CC(=O)O)c2ccccc2S1(=O)=O
[11]
  IC50: > 100 µM (inactive)
[12]
  IC50: > 100 µM (not active)

## Cc1cccc(C(=O)NC2CC3CCCC(C2)N3Cc2ccccc2)c1 (stereo unspecified)
[13]
  IC50: > 32 µM (inactive)
Mu-type opioid receptor
  EC50: > 32 µM (inactive)
[14]
  EC50: > 32 µM (inactive)
[15]
  IC50: 15.7 µM (active)
Beta-galactosidase
  EC50: > 31.5 µM (inactive)
[16]
  IC50: 19.9 µM

## Cc1ccc(N(C)C(=O)c2cc(S(=O)(=O)N3CCc4ccccc43)cn2C)cc1
[17]
  IC50: 0.769 µM (active)

## Cc1cccc(/C=N/NC(=O)c2ccc(Br)cc2)c1
Trypsin
  AC50: 7.5 µM (active)
CAAX prenyl protease 2
  AC50: 7.44 µM (active)

## CCOc1ccc(NC(=O)c2ccccc2OCC(=O)c2ccccc2)cc1
[17]
  IC50: 1.74 µM (active)

## CC(=O)c1ccc(-c2nc3c4ccccc4ccn3c2C(C)=O)o1
HEK293 [18]
  EC50: 0.0552 µM (active)
[19]
  EC50: > 8 µM (not active)
[20]
  EC50: > 112 µM (not active)
[21]
  EC50: > 112 µM (not active)
HEK293 [22]
  EC50: > 8 µM (inactive)
HEK293 [23]
  EC50: 0.503 µM (active)
HEK293 [24]
  AC50: 3.1 µM (active)

## Cc1ccccc1Oc1nnc(-c2cccs2)c2ccccc12
[11]
  IC50: > 100 µM (inactive)
[12]
  IC50: > 100 µM (not active)

## O=C1C=C(c2cccs2)CC(c2cccs2)C1n1cnc([N+](=O)[O-])c1 (stereo unspecified)
[8]
  EC50: 18.5 µM (inactive)
[9]
  EC50: > 79.4 µM (not active)
[10]
  EC50: 20.7 µM (not active)
Cytochrome P450 2D6
  AC50: 15.8 µM (inconclusive)

## Cc1cccc2c(N=NC(=O)c3ccc(NS(=O)(=O)c4cccs4)cc3)c(O)[nH]c12
Hexokinase HKDC1
  IC50: 15.5 µM (active)
